Values quoted from earlier work as cited in patent US20020051978A1, “Methods and compositions for the identification, assessment, prevention and therapy of human cancers” (priority 2000, published 2002).
Where two headings read alike, the source gives them in different places.

Test system: 60 cancer cell lines (NCI 60 cancer cell line series)
Conditions: cited from earlier work

SMILES: CS(=O)(=O)OCCCCOS(C)(=O)=O [Busulfan]
- -Log (GI50) (Breast BT-549 (CL5013)): 3.6
- -Log (GI50) (Breast HS-578T CL5006): 3.6
- -Log (GI50) (Breast MCF7(I) (CL5001)): 3.7
- -Log (GI50) (Breast MCF7/ADRr (CL5002)): 3.6
- -Log (GI50) (Breast MDA-MB-231 CL5005): 3.6
- -Log (GI50) (Breast MDA-MB-435 (CL5011)): 3.6
- -Log (GI50) (Breast MDA-N CL5012): 3.7
- -Log (GI50) (Breast T-47D (CL5014)): 3.6
- -Log (GI50) (CNS SF-268 CL12014): 3.8
- -Log (GI50) (CNS SF-295 CL12015): 3.7
- -Log (GI50) (CNS SF-539 CL12016): 3.6
- -Log (GI50) (CNS SNB-19 (CL12002)): 3.6
- -Log (GI50) (CNS SNB-75(I) CL12005): 3.8
- -Log (GI50) (CNS U251(I) CL12009): 3.6
- -Log (GI50) (Colon COLO-250 CL4010): 3.6
- -Log (GI50) (Colon HCC-2998 (CL4002)): 3.7
- -Log (GI50) (Colon HCT-15 CL4015): 3.6
- -Log (GI50) (Colon HCT-116 (CL4003)): 3.6
- -Log (GI50) (Colon HT29(I) CL4001): 3.6
- -Log (GI50) (Colon KM12 (CL4017)): 3.6
- -Log (GI50) (Colon SW-620 (CL4009)): 3.7
- -Log (GI50) (Leukemia CCRF-CEM(I) (CL7003)): 3.8
- -Log (GI50) (Leukemia HL-60(I) (CL7008)): 3.8
- -Log (GI50) (Leukemia K562(I) CL7005): 3.6
- -Log (GI50) (Leukemia MOLT-4 (CL7006)): 3.9
- -Log (GI50) (Leukemia RPMI-8226(I) (CL7010)): 3.6
- -Log (GI50) (Leukemia SR CL7019): 4.1
- -Log (GI50) (Melanoma LOX IMVI CL10001): 3.7
- -Log (GI50) (Melanoma M14 (CL10014)): 3.6
- -Log (GI50) (Melanoma MALME-3M CL10002): 3.6
- -Log (GI50) (Melanoma SK-MEL-2 (CL10005)): 3.6
- -Log (GI50) (Melanoma SK-MEL-5 (CL10007)): 3.6
- -Log (GI50) (Melanoma SK-MEL-28 (CL10008)): 3.7
- -Log (GI50) (Melanoma UACC-62 (CL10020)): 3.7
- -Log (GI50) (Melanoma UACC-257 (CL10021)): 3.7
- -Log (GI50) (NCSLC NCI-H522 CL1003): 3.6
- -Log (GI50) (NSCLC A549/ATCC (CL1004)): 3.7
- -Log (GI50) (NSCLC EKVX (CL1008)): 3.7
- -Log (GI50) (NSCLC HOP-62 (CL1026)): 3.7
- -Log (GI50) (NSCLC HOP-92 (CL1029)): 3.8
- -Log (GI50) (NSCLC NCI-H23(I) CL1001): 3.6
- -Log (GI50) (NSCLC NCI-H226 CL1013): 3.7
- -Log (GI50) (NSCLC NCI-H332M CL1017): 3.6
- -Log (GI50) (NSCLC NCI-H460 CL1021): 4.0
- -Log (GI50) (Ovarian IGROV1 CL6010): 3.6
- -Log (GI50) (Ovarian OVCAR-3 CL6001): 3.7
- -Log (GI50) (Ovarian OVCAR-4 CL6002): 3.7
- -Log (GI50) (Ovarian OVCAR-5 CL6003): 3.6
- -Log (GI50) (Ovarian OVCAR-8 CL6005): 3.6
- -Log (GI50) (Ovarian SK-OV-3 CL6011): 3.6
- -Log (GI50) (Prostate DU-145 CL11003): 3.7
- -Log (GI50) (Prostate PC-3(I) CL11001): 3.6
- -Log (GI50) (Renal 786-O CL9018): 3.6
- -Log (GI50) (Renal A498 CL9013): 3.6
- -Log (GI50) (Renal ACHN CL9023): 3.8
- -Log (GI50) (Renal CAKI-1 CL9015): 3.9
- -Log (GI50) (Renal RXF-393 CL9016): 3.9
- -Log (GI50) (Renal SN12C CL9008): 3.6
- -Log (GI50) (Renal TK10 CL9024): 3.6
- -Log (GI50) (Renal UO-31 CL9004): 3.6

SMILES: O=C(O)CCCc1ccc(N(CCCl)CCCl)cc1 [Chlorambucil]
- -Log (GI50) (Breast BT-549 (CL5013)): 4.0
- -Log (GI50) (Breast HS-578T CL5006): 3.7
- -Log (GI50) (Breast MCF7(I) (CL5001)): 4.5
- -Log (GI50) (Breast MCF7/ADRr (CL5002)): 4.3
- -Log (GI50) (Breast MDA-MB-231 CL5005): 3.8
- -Log (GI50) (Breast MDA-MB-435 (CL5011)): 3.9
- -Log (GI50) (Breast MDA-N CL5012): 3.9
- -Log (GI50) (Breast T-47D (CL5014)): 4.3
- -Log (GI50) (CNS SF-268 CL12014): 4.5
- -Log (GI50) (CNS SF-295 CL12015): 4.4
- -Log (GI50) (CNS SF-539 CL12016): 4.6
- -Log (GI50) (CNS SNB-19 (CL12002)): 4.0
- -Log (GI50) (CNS SNB-75(I) CL12005): 4.3
- -Log (GI50) (CNS U251(I) CL12009): 4.4
- -Log (GI50) (Colon COLO-250 CL4010): 3.9
- -Log (GI50) (Colon HCC-2998 (CL4002)): 4.0
- -Log (GI50) (Colon HCT-15 CL4015): 4.0
- -Log (GI50) (Colon HCT-116 (CL4003)): 4.0
- -Log (GI50) (Colon HT29(I) CL4001): 3.9
- -Log (GI50) (Colon KM12 (CL4017)): 3.8
- -Log (GI50) (Colon SW-620 (CL4009)): 4.1
- -Log (GI50) (Leukemia CCRF-CEM(I) (CL7003)): 5.2
- -Log (GI50) (Leukemia HL-60(I) (CL7008)): 5.1
- -Log (GI50) (Leukemia K562(I) CL7005): 3.9
- -Log (GI50) (Leukemia MOLT-4 (CL7006)): 5.3
- -Log (GI50) (Leukemia RPMI-8226(I) (CL7010)): 4.1
- -Log (GI50) (Leukemia SR CL7019): 5.2
- -Log (GI50) (Melanoma LOX IMVI CL10001): 4.4
- -Log (GI50) (Melanoma M14 (CL10014)): 4.2
- -Log (GI50) (Melanoma MALME-3M CL10002): 4.2
- -Log (GI50) (Melanoma SK-MEL-2 (CL10005)): 3.8
- -Log (GI50) (Melanoma SK-MEL-5 (CL10007)): 4.1
- -Log (GI50) (Melanoma SK-MEL-28 (CL10008)): 4.0
- -Log (GI50) (Melanoma UACC-62 (CL10020)): 4.7
- -Log (GI50) (Melanoma UACC-257 (CL10021)): 4.1
- -Log (GI50) (NCSLC NCI-H522 CL1003): 4.6
- -Log (GI50) (NSCLC A549/ATCC (CL1004)): 4.2
- -Log (GI50) (NSCLC EKVX (CL1008)): 3.8
- -Log (GI50) (NSCLC HOP-62 (CL1026)): 4.4
- -Log (GI50) (NSCLC HOP-92 (CL1029)): 4.2
- -Log (GI50) (NSCLC NCI-H23(I) CL1001): 4.6
- -Log (GI50) (NSCLC NCI-H226 CL1013): 4.1
- -Log (GI50) (NSCLC NCI-H332M CL1017): 3.7
- -Log (GI50) (NSCLC NCI-H460 CL1021): 4.9
- -Log (GI50) (Ovarian IGROV1 CL6010): 3.9
- -Log (GI50) (Ovarian OVCAR-3 CL6001): 4.0
- -Log (GI50) (Ovarian OVCAR-4 CL6002): 3.9
- -Log (GI50) (Ovarian OVCAR-5 CL6003): 4.0
- -Log (GI50) (Ovarian OVCAR-8 CL6005): 4.1
- -Log (GI50) (Ovarian SK-OV-3 CL6011): 4.0
- -Log (GI50) (Prostate DU-145 CL11003): 4.2
- -Log (GI50) (Prostate PC-3(I) CL11001): 4.0
- -Log (GI50) (Renal 786-O CL9018): 4.5
- -Log (GI50) (Renal A498 CL9013): 3.9
- -Log (GI50) (Renal ACHN CL9023): 4.8
- -Log (GI50) (Renal CAKI-1 CL9015): 4.8
- -Log (GI50) (Renal RXF-393 CL9016): 4.6
- -Log (GI50) (Renal SN12C CL9008): 4.5
- -Log (GI50) (Renal TK10 CL9024): 3.8
- -Log (GI50) (Renal UO-31 CL9004): 4.2
